Measurements taken from PMC12461739, “Multi-targeted azacoumarin–cyanocinnamate hybrids induce G2/M arrest and apoptosis via tubulin, and COX-2/VEGFR modulation: insights from in vitro mechanistic basis and in vivo validation” (RSC Medicinal Chemistry, 2025).
Read-outs that look alike come from different tables or passages of the source.

Key:
MCF-7 cells = test: MTT antiproliferative assay, MCF-7; format: cell-based, human; settings: for IC50: MTT, 48 h treatment, read-out: IC50, antiproliferative activity toward MCF-7; for fold reduction of cytotoxic activity after acetylation of the hydroxyl group: MCF-7, vs parent compound (7 or 6a)
Method: (§1) The cytotoxic effects of the synthesized compounds were evaluated using the MTT assay. MCF-7, MDA-MB 231 (human breast cancer), and MCF-10A (non-tumorigenic breast epithelial) cells were seeded (1–3 × 10^4 cells per well) and incubated for 24 hours at 37 °C in a humidified atmosphere containing 5% CO2.[74] Following incubation, cells were treated with serial dilutions of the test compounds prepared in DMSO. The final concentration of DMSO in all wells, including controls, was maintained below 0.5% v/v to avoid solvent-related cytotoxicity. Doxorubicin was used as a positive control for comparison of antiproliferative activity. Following 48 hours of treatment, the culture medium was gently removed, and each well received 20 μL of MTT reagent (5 mg mL^−1 in phosphate-buffered saline). The plates were incubated at 37 °C for 4 hours to facilitate the enzymatic reduction of MTT into formazan by metabolically active cells. After incubation, the solution was discarded, and 100 μL of dimethyl sulfoxide was added. The absorbance of each well was measured at 570 nm using a microplate spectrophotometer. Cell viability was determined by comparing absorbance values to those of the untreated controls and expressed as a percentage. GraphPad Prism software was used to plot dose–response curves and calculate IC50 values.

MDA-MB 231 cells = test: MTT antiproliferative assay, MDA-MB 231; format: cell-based, human; settings: for IC50: Homo sapiens, MDA-MB-231, 48 h, MTT, 48 h treatment, read-out: IC50, antiproliferative activity toward MDA-MB 231
Method: as §1

[1] = FRAP (ferric reducing antioxidant power) assay; settings: 37 °C, 60 min
Method: The resulting Fe^2+ forms a colored complex with the FRAP chromogenic probe, which can be quantitatively measured. The reaction mixture was prepared by combining FRAP assay buffer, FRAP probe, and FeCl3 solution as per the manufacturer's protocol. […] Absorbance was measured at 594 nm using a microplate reader after incubation at 37 °C for 60 minutes. Antioxidant activity was determined by comparing the absorbance of the samples to a standard curve generated using known concentrations of the ferrous standard provided in the kit.

[2] = MTT cytotoxicity assay, MCF-10A; format: cell-based, human; settings: human, MCF-10A non-tumorigenic breast epithelial cells, MTT, 48 h treatment, non-tumorigenic breast epithelial cells; read-out: IC50, cytotoxicity toward MCF-10A
Method: as §1, with “MCF-7, MDA-MB 231 (human breast cancer), and MCF-10A (non-tumorigenic breast epithelial) cells were seeded (1–3 × 10^4 cells per well) and incubated for 24 hours at 37 °C in a humidified atmosphere containing 5% CO2.[74]” left out

MCF-10A cells = test: MTT cytotoxicity assay, MCF-10A; format: cell-based, human
Method: as §1, with “MCF-7, MDA-MB 231 (human breast cancer), and MCF-10A (non-tumorigenic breast epithelial) cells were seeded (1–3 × 10^4 cells per well) and incubated for 24 hours at 37 °C in a humidified atmosphere containing 5% CO2.[74]” left out

| SMILES | IC50 (MCF-7 cells; Homo sapiens, MCF7, 48 h) [µM] | IC50 (MCF-7 cells) [µM] | IC50 (MDA-MB 231 cells) [µM] | fold improvement in cytotoxicity in MDA-MB-231 compared to MCF-7 (MDA-MB 231 cells; MDA-MB-231 vs MCF-7) [fold] | fold reduction of cytotoxic activity after acetylation of the hydroxyl group (MCF-7 cells) [fold] | IC50 [1] [µM] | IC50 at 48 h [2] [µM] | selectivity index toward breast cancer cells (MCF-10A cells; MCF-10A vs MCF-7 / MDA-MB 231) | IC50 (MCF-10A cells; MTT, 48 h treatment, non-tumorigenic breast epithelial cells, read-out: IC50, cytotoxicity toward MCF-10A) [µM] |
| --- | --- | --- | --- | --- | --- | --- | --- | --- | --- |
| CCOC(=O)/C(C#N)=C/c1ccc(Oc2c(C)c3cc(Br)c(O)c(Br)c3[nH]c2=O)c(OC)c1 [Compound 6a, ethyl (E)-2-cyano-3-(4-((6,8-dibromo-7-hydroxy-4-methyl-2-oxo-1,2-dihydroquinolin-3-yl)oxy)-3-methoxyphenyl)acrylate] | 26.6 ± 1.56 | 26.6 ± 1.56 | 19.6 ± 1.72 |  |  |  |  |  |  |
| CCOC(=O)/C(C#N)=C/c1cc(Br)c(Oc2c(C)c3cc(Br)c(O)c(Br)c3[nH]c2=O)c(Br)c1 [Compound 6b, ethyl (E)-2-cyano-3-(3,5-dibromo-4-((6,8-dibromo-7-hydroxy-4-methyl-2-oxo-1,2-dihydroquinolin-3-yl)oxy)phenyl)acrylate] | 112 ± 6.57 | 112 ± 6.57 | 31.1 ± 1.87 | ~3.6 |  |  |  |  |  |
| CCOC(=O)/C(C#N)=C/c1ccc(Oc2c(C)c3cc(Br)c(OC(C)=O)c(Br)c3[nH]c2=O)cc1 [Compound 8, ethyl (E)-3-(4-((7-acetoxy-6,8-dibromo-4-methyl-2-oxo-1,2-dihydroquinolin-3-yl)oxy)phenyl)-2-cyanoacrylate] | 17.8 ± 1.05 | 17.8 ± 1.05 | 26.9 ± 0.79 |  | 2.3 |  |  |  |  |
| CCOC(=O)/C(C#N)=C/c1ccc(Oc2c(C)c3cc(Br)c(OC(C)=O)c(Br)c3[nH]c2=O)c(OC)c1 [Compound 9, ethyl (E)-3-(4-((7-acetoxy-6,8-dibromo-4-methyl-2-oxo-1,2-dihydroquinolin-3-yl)oxy)-3-methoxyphenyl)-2-cyanoacrylate] | 33.4 ± 1.96 | 33.4 ± 1.96 | 44.2 ± 2.96 |  | 1.25 |  |  |  |  |
| O=C1O[C@H]([C@@H](O)CO)C(O)=C1O [ascorbic acid, reference compound] |  |  |  |  |  | 110 ± 4.21 |  |  |  |
| COc1cccc2c1C(=O)c1c(O)c3c(c(O)c1C2=O)C[C@@](O)(C(=O)CO)C[C@@H]3O[C@H]1C[C@H](N)[C@H](O)[C@H](C)O1 [doxorubicin, reference compound] | 12.6 ± 0.61 |  | 8.4 ± 0.61 |  |  |  | 16.2 ± 0.55 | 1.3 | 16.2 ± 0.55 |
